Experimental data taken from patent US8044198B2, “Sirtuin modulating compounds” (Sirtris Pharmaceuticals, Inc., priority 2005, dated 2011).
Like-named read-outs stand apart in the source and are kept apart here.

Target: T1, SIRT1 (Homo sapiens, UniProt Q96EB6)
T1 sequence (Q96EB6 1-747): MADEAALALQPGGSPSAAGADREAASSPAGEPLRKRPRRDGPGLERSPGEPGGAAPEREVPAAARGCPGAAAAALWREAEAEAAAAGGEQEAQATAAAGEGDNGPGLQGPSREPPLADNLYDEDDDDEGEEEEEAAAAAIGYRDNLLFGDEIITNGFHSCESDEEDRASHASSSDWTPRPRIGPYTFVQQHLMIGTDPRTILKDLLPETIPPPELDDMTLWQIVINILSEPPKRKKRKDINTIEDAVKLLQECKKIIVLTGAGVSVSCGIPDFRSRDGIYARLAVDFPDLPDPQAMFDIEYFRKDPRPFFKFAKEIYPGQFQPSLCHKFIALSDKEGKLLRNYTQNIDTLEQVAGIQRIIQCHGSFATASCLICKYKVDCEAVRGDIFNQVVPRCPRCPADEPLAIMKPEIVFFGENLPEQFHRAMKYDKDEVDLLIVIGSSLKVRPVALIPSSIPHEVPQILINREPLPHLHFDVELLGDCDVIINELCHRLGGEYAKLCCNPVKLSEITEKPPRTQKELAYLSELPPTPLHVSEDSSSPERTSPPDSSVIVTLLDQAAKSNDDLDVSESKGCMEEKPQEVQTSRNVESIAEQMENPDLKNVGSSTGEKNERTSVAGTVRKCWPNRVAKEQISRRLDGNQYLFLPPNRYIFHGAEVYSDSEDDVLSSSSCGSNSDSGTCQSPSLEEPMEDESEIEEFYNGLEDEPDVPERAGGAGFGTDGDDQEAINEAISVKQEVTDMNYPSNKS
Assay: SIRT1 mass spectrometry (MS) based deacetylation assay; as to FOLD ACT. MS: test concentration or dose not given here
Format: biochemical
Conditions: for EC50: mass spectrometry assay, read-out: ED50 MS ASSAY

[1] = fold activation of SIRT1 as determined by MS
[2] = SIRT1 fold activation as determined by MS
[3] = Sirt1 activators, fold activation as determined by MS
[4] = fold activation of SIRT1, mass spectrometry assay

| SMILES | EC50 (Sirt1 activators) | EC50 (SIRT1 activation) | FOLD ACT. MS [3] | also measured |
| --- | --- | --- | --- | --- |
| COc1cc(C(=O)Nc2ccccc2-c2nc3cc(CN4CCOCC4)cnc3s2)cc(OC)c1OC [Compound 681] | 5 to 50 µM |  |  |  |
| COc1cc(C(=O)Nc2cc(-c3nc4ncccc4o3)ccn2)cc(OC)c1OC [Compound 75] |  | 5 to 50 µM |  | FOLD ACT. MS [1]: B (B (Fold Activation <250%)) |
| COc1cc(C(=O)Nc2ccccc2-c2cn3c(C)csc3n2)cc(OC)c1OC [Compound 739] |  | < 5 µM |  | FOLD ACT. MS [2]: A (A (Fold activation >250%)) |
| CN(C)c1cccc(C(=O)Nc2ccccc2-c2nc3cccnc3[nH]2)c1 [Compound 524] | < 5 µM |  | B (B (Fold Activation <250%)) |  |
| COc1cc(C(=O)Nc2cccc(-c3nc4ccncc4o3)c2)cc(OC)c1OC [Compound 430] |  | 5 to 50 µM |  | FOLD ACT. MS [4]: A (A (Fold activation >250%)) |
| COc1ccc(C(=O)Nc2ccccc2-c2cn3c(n2)CCCC3)cc1OC [Compound 545] | 5 to 50 µM |  | B (B (Fold Activation <250%)) |  |
| Cc1cc(C(=O)Nc2ccccc2-c2cn3c(CN4CCNCC4)csc3n2)n(C)n1 [Compound 678] | 5 to 50 µM |  | B (B (Fold Activation <250%)) |  |
| CC(Oc1ccccc1)C(=O)Nc1ccccc1-c1nc2ccncc2s1 (stereo not drawn) [Compound 463] | 5 to 50 µM |  |  |  |
| CN(C)c1cccc(C(=O)Nc2cccc(-c3nc4cnccc4s3)c2)c1 [Compound 402] |  | < 5 µM |  | FOLD ACT. MS [4]: B (B (Fold Activation <250%)) |
| CS(=O)(=O)Nc1cccc(C(=O)Nc2cc(-c3nc4ncccc4o3)ccn2)c1 [Compound 566] | 5 to 50 µM |  | B (B (Fold Activation <250%)) |  |
| COc1cc(C(=O)Nc2cc(-c3nc4ncccc4o3)ccn2)ccc1CN1CCCCC1 [Compound 571] | 5 to 50 µM |  | B (B (Fold Activation <250%)) |  |
| CN(C)c1cccc(C(=O)Nc2ccc(-c3nc4ncccc4s3)cc2)c1 [Compound 196] |  | 5 to 50 µM |  | FOLD ACT. MS [1]: B (B (Fold Activation <250%)) |
| COc1ccc(C(=O)Nc2ccccc2-c2nc3cnccc3s2)c(OC)c1 [Compound 317] |  | < 5 µM |  | FOLD ACT. MS [4]: B (B (Fold Activation <250%)) |
| COc1ccc(C(=O)Nc2sccc2-c2nc3ccccc3s2)cc1OC [Compound 145] |  | < 5 µM |  | FOLD ACT. MS [1]: B (B (Fold Activation <250%)) |
| COc1cc(OC)cc(C(=O)Nc2ccccc2-c2nc3ccncc3o2)c1 [Compound 456] |  | < 5 µM |  | FOLD ACT. MS [4]: B (B (Fold Activation <250%)) |
| CN(C)c1ccc(C(=O)Nc2ccccc2-c2nc3cnccc3o2)cc1 [Compound 407] |  | < 5 µM |  | FOLD ACT. MS [4]: B (B (Fold Activation <250%)) |
| COc1cc(C(=O)Nc2cc(-c3nc4ncccc4o3)ccn2)ccc1CN1CCN(C)CC1 [Compound 637] | > 150 µM |  | B (B (Fold Activation <250%)) |  |
| O=C(Nc1ccccc1-c1nc2cc(CN3CCNCC3)cnc2s1)c1ccc2ncsc2c1 [Compound 730] |  | 5 to 50 µM |  | FOLD ACT. MS [2]: A (A (Fold activation >250%)) |
| CN(C)c1cccc(C(=O)Nc2ccccc2-c2nc3cnccc3o2)c1 [Compound 406] |  | < 5 µM |  | FOLD ACT. MS [4]: B (B (Fold Activation <250%)) |
| COc1cc(C(=O)Nc2ccc(-c3nc4ccncc4o3)s2)cc(OC)c1OC [Compound 563] | 5 to 50 µM |  | B (B (Fold Activation <250%)) |  |
| COc1ccc(C(=O)Nc2ccccc2-c2nc3ccccc3[nH]2)cc1OC [Compound 142] |  | < 5 µM |  | FOLD ACT. MS [1]: A (A (Fold activation >250%)) |
| COC(=O)c1cccc(NC(=S)Nc2cccc(-c3nc4ccncc4s3)c2)c1 [Compound 473] | < 5 µM |  |  |  |
| COc1ccc(C(=O)Nc2ccccc2-c2cn3cc(CN(C)C)sc3n2)cc1OC [Compound 178] |  | 5 to 50 µM |  | FOLD ACT. MS [1]: A (A (Fold activation >250%)) |
| COc1ccc(C(=O)Nc2ccccc2-c2nc3ccncc3s2)cc1OC [Compound 162] |  | < 5 µM |  | FOLD ACT. MS [1]: B (B (Fold Activation <250%)) |
| COc1cc(C(=O)Nc2ccccc2-c2cc3ccccc3[nH]2)cc(OC)c1OC [Compound 255] |  | < 5 µM |  | FOLD ACT. MS [4]: B (B (Fold Activation <250%)) |
| O=C(Nc1ccccc1-c1cn2c(CN3CCOCC3)csc2n1)c1cnc2ccccc2n1 [Compound 617] | < 5 µM |  | A (A (Fold activation >250%)) |  |
| CN(C)Cc1ccc2oc(-c3cccc(NC(=O)c4cccc(N(C)C)c4)c3)nc2n1 [Compound 165] |  | > 150 µM |  | FOLD ACT. MS [1]: A (A (Fold activation >250%)) |
| CC(=O)Nc1ccc(S(=O)(=O)Nc2cccc(-c3nc4ccncc4s3)c2)cc1 [Compound 288] |  | 5 to 50 µM |  | FOLD ACT. MS [4]: B (B (Fold Activation <250%)) |
| CC(CC(=O)Nc1cccc(-c2nc3ccncc3s2)c1)Oc1ccccc1 (stereo not drawn) [Compound 396] |  | 5 to 50 µM |  | FOLD ACT. MS [4]: B (B (Fold Activation <250%)) |

Second part, led by results:

| EC50 (Sirt1 activators) | EC50 (SIRT1 activation) | FOLD ACT. MS [3] | SMILES | also measured |
| --- | --- | --- | --- | --- |
| < 5 µM |  | B (B (Fold Activation <250%)) | COc1ccc(C(=O)Nc2ccccc2-c2nc3cccnc3[nH]2)cc1OC [Compound 525] |  |
| 5 to 50 µM |  | B (B (Fold Activation <250%)) | S=C(Nc1ccc(N2CCOCC2)nc1)Nc1cccc(-c2nc3ccncc3s2)c1 [Compound 484] |  |
| 5 to 50 µM |  | A (A (Fold activation >250%)) | COc1cc(C(=O)Nc2ccccc2-c2nc3cccnc3[nH]2)ccc1CN1CCCCC1 [Compound 536] |  |
|  | 5 to 50 µM |  | COc1ccccc1C(=O)Nc1cccc(-c2cn3ccsc3n2)c1 [Compound 132] | FOLD ACT. MS [1]: A (A (Fold activation >250%)) |
|  | < 5 µM |  | c1cc(Nc2nc3ccccc3s2)cc(-c2nc3ncccc3o2)c1 [Compound 95] | FOLD ACT. MS [1]: B (B (Fold Activation <250%)) |
|  | < 5 µM |  | Cc1ccc(C(=O)Nc2ccccc2-c2nc3ccc(CN4CCNCC4)nc3s2)cc1C [Compound 727] | FOLD ACT. MS [2]: A (A (Fold activation >250%)) |
| < 5 µM |  | A (A (Fold activation >250%)) | COc1cc(C(=O)Nc2ccccc2-c2nc3cccnc3[nH]2)ccc1CN1CCOCC1 [Compound 537] |  |
|  | 5 to 50 µM |  | O=C(Nc1ccccc1-c1nc2cc(CN3CCNCC3)cnc2s1)c1cccc(C(F)(F)F)c1 [Compound 731] | FOLD ACT. MS [2]: A (A (Fold activation >250%)) |
| < 5 µM |  | B (B (Fold Activation <250%)) | O=C(Nc1ccccc1-c1cn2c(CN3CCCCC3)csc2n1)c1cnc2ccccc2n1 [Compound 618] |  |
|  | < 5 µM |  | COc1ccc(C(=O)Nc2ccccc2-c2cc3ccccc3[nH]2)cc1OC [Compound 254] | FOLD ACT. MS [4]: B (B (Fold Activation <250%)) |
|  | < 5 µM |  | COc1ccc(C(=O)Nc2cccc(-c3nc4ncccc4[nH]3)c2)c(OC)c1 [Compound 184] | FOLD ACT. MS [1]: B (B (Fold Activation <250%)) |
| < 5 µM |  | A (A (Fold activation >250%)) | Cc1ccc(C(=O)Nc2ccccc2-c2nc3cc(CN4CCNCC4)cnc3s2)cc1C [Compound 591] |  |
|  | < 5 µM |  | COc1cc(C(=O)Nc2ccccc2-c2nc3cnccc3s2)cc(OC)c1OC [Compound 319] | FOLD ACT. MS [4]: B (B (Fold Activation <250%)) |
| 5 to 50 µM |  |  | S=C(Nc1cccnc1)Nc1cccc(-c2nc3ccncc3s2)c1 [Compound 485] |  |
| < 5 µM |  | A (A (Fold activation >250%)) | COc1cc(OC)cc(C(=O)Nc2ccccc2-c2nc3cc(CN4CCNCC4)cnc3s2)c1 [Compound 589] |  |
|  | < 5 µM |  | COc1ccc(C(=O)Nc2cccc(-c3cc4cccnc4o3)c2)c(OC)c1 [Compound 191] | FOLD ACT. MS [1]: B (B (Fold Activation <250%)) |
| 5 to 50 µM |  | B (B (Fold Activation <250%)) | COc1cc(C(=O)Nc2ccccc2-c2cn3c(n2)CCCC3)cc(OC)c1OC [Compound 546] |  |
|  | < 5 µM |  | Cn1nc(C(C)(C)C)cc1C(=O)Nc1cccc(-c2nc3ccncc3s2)c1 [Compound 246] | FOLD ACT. MS [4]: B (B (Fold Activation <250%)) |
|  | 5 to 50 µM |  | O=C(Nc1cccc(-c2nc3ccncc3s2)c1)c1cccnc1Cl [Compound 222] | FOLD ACT. MS [4]: B (B (Fold Activation <250%)) |
|  | 5 to 50 µM |  | COc1cccc(C(=O)Nc2cccc(-c3nc4cccnc4s3)c2)c1OC [Compound 214] | FOLD ACT. MS [1]: B (B (Fold Activation <250%)) |
| < 5 µM |  |  | COc1ccc(NC(=S)Nc2cccc(-c3nc4ccncc4s3)c2)c(OC)c1 [Compound 599] |  |
|  | 5 to 50 µM |  | COc1cc(C(=O)Nc2cccc(-c3nc4ncccc4o3)n2)cc(OC)c1OC [Compound 57] |  |
| > 150 µM |  | B (B (Fold Activation <250%)) | CCn1ccc(C(=O)Nc2cc(-c3nc4ncccc4o3)ccn2)n1 [Compound 641] |  |
| < 5 µM |  | A (A (Fold activation >250%)) | CN(C)CCOCc1csc2nc(-c3ccccc3NC(=O)c3cnc4ccccc4n3)cn12 [Compound 647] |  |
|  | < 5 µM |  | COc1cc(C(=O)Nc2ccccc2-c2cn3cc(CN4CCNCC4)sc3n2)cc(OC)c1OC [Compound 271] | FOLD ACT. MS [4]: A (A (Fold activation >250%)) |
